Legend:
[1] = system: CDCA3 and PLK1; experiment: Immunoprecipitation of CDCA3 with PBD of PLK1 under CDK1 inhibition (FIG. 5E); format: cell-based; settings: inhibition of CDK1 to block CDCA3 phosphorylation
Excerpt: FIG. 5. (A) PLK1 schematic listing kinase domain and polo-box domain (PBD). (B) CDCA3 immunoprecipitates with the PBD of PLK1 irrespective of the phospho-binding mutant (H538 and K540 each mutated to alanine residues). (C) CDCA3 is phosphorylated by CDK1-cyclin B1 causing a large molecular weight shift measured by SDS-PAGE. (D) Mutating each of the five CDK1-cyclin B1 phosphorylation sites within CDCA3 enhances binding to PLK1. (E) Inhibition of CDK1 with RO3306 enhances immunoprecipitation of CDCA3 with the PBD domain of PLK1. (F) Unmodified recombinant CDCA3 binds to recombinant Aurora A and PLK1. CDCA3 pre-phosphorylated by CDK1-cyclin B1 binds markedly less to PLK1 than unmodified CDCA3. (G) Recombinant unmodified CDCA3 but not phosphorylated CDCA3 enhances the in vitro activation and phosphorylation of PLK1 by Aurora A.
The present inventors next examined the mechanism regulating the association between CDCA3 and PLK1. The structure of PLK1 consists of an N-terminal kinase domain and a […] polo-box domain (PBD; FIG. 5A). Classically, the PBD binds phosphorylated substrates requiring the residues His538 and Lys540. Using immunoprecipitation analysis of lysates from cells ectopically expressing CDCA3 and the PBD of PLK1, it was identified that CDCA3 associates with the PLK1 PBD independent of residues His538 and Lys540 (FIG. 5B). […]

[2] = system: CDCA3; experiment: CDCA3 levels after TKI treatment of EGFR mut NSCLC cell lines (FIG. 12); format: cell-based; settings: H1975 cells (L858R, T790M)
Procedure: Given CDCA3 levels are responsive to EGFR activation, the present inventors examined CDCA3 levels following second and third generation TKI treatment of three EGFR^mut cell lines; HCC827 and H1650 (exon 19 deletion E746-A750) and H1975 cells (L858R, T790M-resistant to first and second generation TKI).
To collect whole cell lysates, cells were first washed in PBS then lysed in lysis buffer (50 mM HEPES (pH 7.5), 150 mM KCl, 5 mM EDTA, 0.05% IGEPAL CA-630 (v/v), 1× protease inhibitor cocktail (Roche), and 1× phosphatase inhibitor cocktail (Cell Signalling Technology). Total protein was determined by bicinchoninic acid (BCA) protein assay (Sigma Aldrich) following lysate sonication and centrifugation. Samples (total protein 20 20 μg) were denatured in 1× Laemmli Buffer supplemented with 8% β-mercaptoethanol for 5 minutes at 80° C.
The samples were separated on Bolt 4-12% Bis-Tris Plus pre-cast gels (Invitrogen) and transferred onto nitrocellulose membrane (GE Healthcare Life Sciences) using the semi-dry Novex XCell II Blot Module transfer system (Life Technologies). The nitrocellulose membranes were blocked using Odyssey blocking buffer (Li-Cor) before incubation overnight at 4° C. with primary antibody in a 1:1 solution of PBS-T and Odyssey Blocking Buffer. Following primary antibody incubation, membranes were washed with PBS-T and incubated with the appropriate secondary antibodies. […]

[3] = system: HCC827 cells
Procedure: (§1) All NSCLC cell lines were obtained from the American Type Culture Collection (ATCC) except for PC-9 cell line which was sourced from the European Collection of Cell Cultures (ECACC). Cells were grown in RPMI-1640-medium containing L-glutamine (Life Technologies) and 10% foetal bovine serum (FBS, Sigma Aldrich). […] All cell lines were cultured at 37° C. in a humidified 5% CO2 incubator and routinely tested for mycoplasma contamination. Transfection of CDCA3-FLAG expression construct was performed using the FuGene HD transfection reagent (Promega Corporation).
(§2) Cells were seeded into a white-walled, glass-bottomed 384-well plate (Nunc) at a density of 1x10^3 cells per well. […] Cell viability was determined using CellTitre-Glo 2.0 (Promega Corporation) according to the manufacturer's instructions. Luminescence was scanned and analysed on the FLUOstar Omega Microplate Reader (BMG Labtech). Data was normalised to untreated controls and dose response curves and drug potency values generated using GraphPad Prism V9 software.
(§3) The present inventors next sought to assess this possibility in in vitro models of acquired TKI resistance. […] Cells not exposed to TKI were also maintained in culture for the same period, hereafter referred to as the parental cells.

[4] = system: PC-9 cells; format: cell-based; settings: for effect of ectopic CDCA3 expression on sensitivity: PC-9 parental cells; for enhancement of potency by ectopic CDCA3 expression: PC-9 resistant cells
Procedure: as §1, §2, §3

[5] = system: NSCLC cells; experiment: Cell death with cisplatin and/or BI 2536 in control versus CDCA3 depleted NSCLC cells (FIG. 9B); format: cell-based; settings: monotherapy
[6] = system: control and CDCA3-depleted cells; experiment: Mitotic entry and recovery from cisplatin-induced G2 checkpoint, flow cytometry of Ser-10 phosphorylated histone H3 (FIG. 2C); format: cell-based; settings: after cisplatin-induced G2 checkpoint; both control and CDCA3-depleted cells
Excerpt: FIG. 2. (A) Undamaged cells depleted of CDCA3 progress to mitosis slower than control cells or cells complemented with siRNA resistant CDCA3. (B) Cisplatin treated cells and depleted of CDCA3 are unable to recover from cell cycle arrest. (C) Cells treated with Cisplatin and then a PLK1 inhibitor are unable to recover from cell cycle arrest.
As this protein is reported to regulate cell proliferation (as confirmed by data in FIG. 7), the present inventors investigated its potential role in cell cycle progression from G2 into mitosis. To examine cell cycle progression, control cells, CDCA3-depleted cells or depleted cells ectopically expressing siRNA resistant CDCA3-FLAG were synchronized at the G1/S cell cycle boundary by a double thymidine block and released for seven hours (˜G2 phase). At this time cells were treated with or without cisplatin for 3.5 h and released into nocodazole containing media to capture cells in mitosis. Mitotic cells were determined by flow cytometry analysis of cells stained for Ser-10 phosphorylated histone H3. In undamaged cells, CDCA3 depletion slowed the progression of cells from G2 into mitosis (FIG. 2A). However, in cisplatin treated cells, CDCA3 depletion abolished mitotic progression with an inability to recover from G2 cell cycle arrest (FIG. 2B). […]

[7] = system: PLK1; experiment: Mitotic index (H3S10ph) in cells expressing wildtype or T210D PLK1 (FIG. 4D); format: cell-based; settings: dose dependent
[8] = system: NSCLC cells; experiment: Cisplatin IC50 in CDCA3-depleted versus control NSCLC cells (FIG. 8); format: cell-based
Excerpt: FIG. 8. CDCA3-depletion reduces cisplatin IC50 values ˜2-4 fold versus control NSCLC cells but not non-tumorigenic lung epithelial HBEC cells, indicating increased sensitivity to cisplatin in NSCLC in vitro.
To investigate the diagnostic potential for CDCA3, the present inventors stratified the UT Lung SPORE cohort data based on CDCA3 expression (CDCA3low=below median, CDCA3high=above median). In this trial, patients undergoing curative resection were either observed only (OBS) or received adjunct chemotherapy (ACT).

[9] = system: H1975 cells; experiment: Cell viability assay (CellTitre-Glo 2.0), H1975; format: cell-based; settings: Homo sapiens, NCI-H1975, 72 h
Procedure: as §1, §2
(§4) The present inventors evaluated TCGA datasets and correlated relative CDCA3 expression against available WikiPathways (2) of known measures of TKI resistance. […] Relative CDCA3 protein levels were correlated with the TKI potency values.

[10] = system: H1650 cells; experiment: Cell viability assay (CellTitre-Glo 2.0), H1650; format: cell-based; settings: relative to other cell lines
Procedure: as §1, §2, §4

For `O=C1NC(=NCc2cccs2)S/C1=C\c1ccc2ncccc2c1` [R03306], the “association between CDCA3 and PLK1” value [1] was “increase”.
In the case of `C=CC(=O)Nc1cc(Nc2nccc(-c3cn(C)c4ccccc34)n2)c(OC)cc1N(C)CCN(C)C` [osimertinib], the CDCA3 levels [2] is reported as “reduced”, the “effect of ectopic CDCA3 expression on sensitivity” value (“effect of ectopic CDCA3 expression” for short) [3] is reported as “did not impact” and the “enhancement of potency by ectopic CDCA3 expression” value (“enhancement of potency” for short) [3] is reported as about 121 fold. The “increase in IC50 values versus parental” value [3] was about 385 fold, the “effect of ectopic CDCA3 expression” value [4] was “did not impact” and the “enhancement of potency” value [4] was 54 fold. The “increase in IC50 values versus parental” value ([4]; erlotinib resistant PC-9 versus parental PC-9) was ~1,470 fold.
For `CC[C@@H]1C(=O)N(C)c2cnc(Nc3ccc(C(=O)NC4CCN(C)CC4)cc3OC)nc2N1C1CCCC1` [BI 2536], the cell death ([5]; CDCA3 depleted cells) was about 13%, the cell death ([5]; control cells) was about 30% and the mitotic entry [6] was “blocked mitotic entry”. For the same molecule, the “mitotic entry (mitotic index)” value [7] was “reduced”.
`N.N.[Cl][Pt][Cl]` [cisplatin] was tested, and the “reduction of cisplatin IC50 values by CDCA3-depletion” value [8] was 2-4 fold.
`C#Cc1cccc(Nc2ncnc3cc(OCCOC)c(OCCOC)cc23)c1` [erlotinib] was tested, and the IC50 [9] was 66.6 µM, the sensitivity [10] was “insensitive” and the “effect of ectopic CDCA3 expression” value [3] was “did not impact”. For the same molecule, the “effect of ectopic CDCA3 expression” value [4] was “did not impact” and the “enhancement of potency” value [4] was about 57 fold.
